Source: the supplement of paper PMC10307832

How the values were obtained:
Test in all cases: relative viability (nuclei count vs DMSO), 5 days (fraction); higher = more cells survive
NCI-H1975 = conditions: first compound 0.2 µM
In short: (§1)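 Dosing by pin tool came one day after lung cancer cell lines were seeded in 1536-well plates, using either one drug or a fixed anchor-drug dose plus five library-drug doses (not always all listed) in √10 steps. After 5 days, nuclei were counted on 4× images. Relative viability is treated-well nuclei count divided by vehicle-well nuclei count, and values are medians of duplicate plates.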

NCI-H1993 = test system: NCI-H1993
In short: as §1

NCI-H2170 = test system: NCI-H2170
In short: as §1

NCI-H2228 = test system: NCI-H2228
In short: as §1

NCI-H2347 = test system: NCI-H2347
In short: as §1

NCI-H23 = test system: NCI-H23
In short: as §1

RERF-LC-KJ = test system: RERF-LC-KJ
In short: as §1

SK-LU-1 = test system: SK-LU-1
In short: as §1

SK-MES-1 = test system: SK-MES-1
In short: as §1

SW 1573 = test system: SW 1573
In short: as §1

UMC-11 = test system: UMC-11
In short: as §1

CCNC(=O)c1noc(-c2cc(C(C)C)c(O)cc2O)c1-c1ccc(CN2CCOCC2)cc1 [Luminespib] + CC1(C)CCC(c2ccc(Cl)cc2)=C(CN2CCN(c3ccc(C(=O)NS(=O)(=O)c4ccc(N[C@H](CCN5CCOCC5)CSc5ccccc5)c(S(=O)(=O)C(F)(F)F)c4)cc3)CC2)C1 [Navitoclax] (partner 0.5 µM)
relative viability (NCI-H1975): 0.142
relative viability (NCI-H1993; first compound 0.002 µM): 0.937
relative viability (NCI-H1993; first compound 0.006325 µM): 1.02
relative viability (NCI-H1993; first compound 0.02 µM): 0.762
relative viability (NCI-H1993; first compound 0.06325 µM): 0.644
relative viability (NCI-H1993; first compound 0.2 µM): 0.466
relative viability (NCI-H2170; first compound 0.002 µM): 0.646
relative viability (NCI-H2170; first compound 0.006325 µM): 0.596
relative viability (NCI-H2170; first compound 0.02 µM): 0.293
relative viability (NCI-H2170; first compound 0.06325 µM): 0.581
relative viability (NCI-H2170; first compound 0.2 µM): 0.451
relative viability (NCI-H2228; first compound 0.002 µM): 0.836
relative viability (NCI-H2228; first compound 0.006325 µM): 0.637
relative viability (NCI-H2228; first compound 0.02 µM): 0.614
relative viability (NCI-H2228; first compound 0.06325 µM): 0.11
relative viability (NCI-H2228; first compound 0.2 µM): 0.144
relative viability (NCI-H2347; first compound 0.002 µM): 0.794
relative viability (NCI-H2347; first compound 0.02 µM): 0.483
relative viability (NCI-H2347; first compound 0.06325 µM): 0.764
relative viability (NCI-H2347; first compound 0.2 µM): 0.275
relative viability (NCI-H23; first compound 0.002 µM): 1.08
relative viability (NCI-H23; first compound 0.006325 µM): 0.793
relative viability (NCI-H23; first compound 0.02 µM): 0.625
relative viability (NCI-H23; first compound 0.06325 µM): 0.142
relative viability (NCI-H23; first compound 0.2 µM): 0.13
relative viability (RERF-LC-KJ; first compound 0.002 µM): 0.987
relative viability (RERF-LC-KJ; first compound 0.006325 µM): 1.11
relative viability (RERF-LC-KJ; first compound 0.02 µM): 1.07
relative viability (RERF-LC-KJ; first compound 0.06325 µM): 0.221
relative viability (RERF-LC-KJ; first compound 0.2 µM): 0.22
relative viability (SK-LU-1; first compound 0.002 µM): 0.887
relative viability (SK-LU-1; first compound 0.006325 µM): 0.478
relative viability (SK-LU-1; first compound 0.02 µM): 0.505
relative viability (SK-LU-1; first compound 0.06325 µM): 0.117
relative viability (SK-LU-1; first compound 0.2 µM): 0.0911
relative viability (SK-MES-1; first compound 0.002 µM): 1.27
relative viability (SK-MES-1; first compound 0.006325 µM): 1.24
relative viability (SK-MES-1; first compound 0.02 µM): 1.28
relative viability (SK-MES-1; first compound 0.06325 µM): 0.149
relative viability (SK-MES-1; first compound 0.2 µM): 0.131
relative viability (SW 1573; first compound 0.002 µM): 0.927
relative viability (SW 1573; first compound 0.006325 µM): 0.892
relative viability (SW 1573; first compound 0.02 µM): 0.803
relative viability (SW 1573; first compound 0.06325 µM): 0.0809
relative viability (SW 1573; first compound 0.2 µM): 0.0666
relative viability (UMC-11; first compound 0.002 µM): 0.305
relative viability (UMC-11; first compound 0.006325 µM): 0.349
relative viability (UMC-11; first compound 0.02 µM): 0.224
relative viability (UMC-11; first compound 0.06325 µM): 0.148
relative viability (UMC-11; first compound 0.2 µM): 0.108
